Measurements as given in patent publication US11136324B2, “Substituted imidazoles as apoptosis signal regulating kinase 1 inhibitors” (Jiangsu Hansoh Pharmaceutical Group Co., Ltd., priority 2017, dated 2021).

Tests used:
ASK1 kinase = ASK1 kinase (Homo sapiens (Human), UniProt Q99683); experiment: ASK1 enzymatic test (TR-FRET); format: biochemical; settings: ASK1 kinase activity
Procedure: In this test, the fluorescence-resonance energy transfer (TR-FRET) method was used to determine the inhibition effect of the test compounds on ASK1 kinase activity, and the half maximal inhibitory concentration IC50 of the compounds on ASK1 kinase activity was obtained.
1) 1˜5 μL of ASK1 enzyme solution was added to a 384-well plate, and the final concentration of the enzyme was 0.220 nM.
2) 1˜5 μL of gradient-diluted compound solution was added.
3) 1˜5 μL of a substrate mixture containing substrate polypeptides (final concentration: 100˜5000 nM) and ATP (final concentration: 100˜1000 uM) were added.
4) The mixture was incubated at room temperature for 0.5 to 5 hours.
5) 10 μL of EDTA and test solution containing labeled antibody were added, and the plate was incubated at room temperature for 2 to 24 hours.
6) The fluorescence signal value of each well was determined by a microplate reader at about 615 nm and 665 nm.
7) The inhibition rate was calculated by the fluorescence signal value.
8) The IC50 of the compound was obtained by curve fitting according to the inhibition rate at different concentrations.

[1] = Pharmacokinetic (PK) assay in mice; format: in vivo; settings: Balb/c male mice, single intragastric administration, 5 mg/kg, plasma; for AUC(0-t) / AUC(0-inf) / half-life / MRT / Cmax: mouse, po; for AUC(0-t): read-out: Area under curve AUC0-t; for AUC(0-inf): read-out: Area under curve AUC0-∞; for half-life: read-out: Half-life t1/2 (converted); for MRT: read-out: Mean residence time MRT; for Cmax: read-out: Plasma concentration Cmax
Procedure: 2. Pharmacokinetic (PK) Assay in Mice
The pharmacokinetic test of the preferred examples of the present invention in mice was carried out in Balb/c male mice (Shanghai Jiesijie Laboratory Animal Co., LTD).
Administration mode: single intragastric administration.
Administration dosage: 5 mg/10 ml/kg.
Formulation: 0.5% CMC-Na, ultrasonic dissolution.
Sampling points: 0.5, 1, 2, 4, 6, 8 and 24 hours after administration.
1) 0.1 mL of blood was taken from the orbit, placed in a K2EDTA tube, and centrifuged for 5˜20 min at room temperature at 1000˜3000×g to separate the plasma, which was then stored at −80° C.
2) 160 μL of acetonitrile was added to 40 μL of plasma sample for precipitation, and then the mixture was centrifuged for 5˜20 minutes at 500˜2000×g.
3) 100 μL, of processed supernatant was taken and analyzed by LC/MS/MS assay to determine the concentration of the test compound.
LC-MS/MS Assay: • Liquid chromatography condition: Shimadzu LC-20AD pump • Mass spectrometry condition: AB Sciex API 4000 mass spectrometer • Chromatographic column: phenomenex Gemiu 5 μm C18 50×4.6 mm • Mobile phase: solution A was 0.1% aqueous formic acid solution, and solution B was acetonitrile • Flow rate: 0.8 mL/min • Elution time: 0-3.5 minutes gradient elution
The main parameters were calculated using WinNonlin 6.1.

ASK1 kinase, sequence (Q99683 whole entry): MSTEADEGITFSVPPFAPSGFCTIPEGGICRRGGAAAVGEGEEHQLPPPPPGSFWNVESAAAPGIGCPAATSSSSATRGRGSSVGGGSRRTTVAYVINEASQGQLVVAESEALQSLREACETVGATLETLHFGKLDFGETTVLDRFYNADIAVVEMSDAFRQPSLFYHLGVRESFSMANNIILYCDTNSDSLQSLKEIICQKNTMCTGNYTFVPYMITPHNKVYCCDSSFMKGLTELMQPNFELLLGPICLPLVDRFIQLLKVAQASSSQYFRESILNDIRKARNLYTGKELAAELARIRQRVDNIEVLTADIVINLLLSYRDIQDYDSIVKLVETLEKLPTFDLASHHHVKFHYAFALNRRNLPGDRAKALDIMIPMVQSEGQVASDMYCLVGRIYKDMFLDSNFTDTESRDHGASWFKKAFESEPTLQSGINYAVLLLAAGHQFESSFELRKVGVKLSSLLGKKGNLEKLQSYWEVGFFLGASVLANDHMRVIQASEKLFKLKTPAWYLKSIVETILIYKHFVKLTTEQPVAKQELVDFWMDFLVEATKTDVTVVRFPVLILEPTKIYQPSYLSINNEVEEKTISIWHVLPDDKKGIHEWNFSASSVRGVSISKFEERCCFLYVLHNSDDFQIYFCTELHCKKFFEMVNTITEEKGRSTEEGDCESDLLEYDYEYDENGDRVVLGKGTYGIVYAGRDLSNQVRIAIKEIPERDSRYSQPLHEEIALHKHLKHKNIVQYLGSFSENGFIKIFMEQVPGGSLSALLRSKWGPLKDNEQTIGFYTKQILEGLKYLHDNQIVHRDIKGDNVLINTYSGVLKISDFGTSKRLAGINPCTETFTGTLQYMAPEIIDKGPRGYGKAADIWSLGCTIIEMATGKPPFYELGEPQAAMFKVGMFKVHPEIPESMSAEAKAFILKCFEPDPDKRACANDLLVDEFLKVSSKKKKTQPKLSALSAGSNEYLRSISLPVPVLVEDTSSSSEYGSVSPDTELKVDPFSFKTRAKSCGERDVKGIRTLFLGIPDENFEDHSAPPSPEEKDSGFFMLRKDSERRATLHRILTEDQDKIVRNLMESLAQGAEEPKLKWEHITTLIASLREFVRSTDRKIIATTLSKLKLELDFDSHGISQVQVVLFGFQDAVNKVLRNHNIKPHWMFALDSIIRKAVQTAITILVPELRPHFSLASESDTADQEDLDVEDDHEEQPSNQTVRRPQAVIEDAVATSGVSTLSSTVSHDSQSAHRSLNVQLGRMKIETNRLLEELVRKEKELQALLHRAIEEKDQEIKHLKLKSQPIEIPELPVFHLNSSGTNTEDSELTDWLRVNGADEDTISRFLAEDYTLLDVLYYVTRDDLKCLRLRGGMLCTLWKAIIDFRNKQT

IC50 (ASK1 kinase) [nM]	Peak time tmax [1] [h]	AUC(0-t) [1] [ng·h/mL]	AUC(0-inf) [1] [ng·h/mL]	half-life [1] [h]	MRT [1] [h]	Cmax [1] [ng/mL]	SMILES
6	0.5	104000	104000	2.9	4.2	18300	Cc1cc(F)c(C(=O)Nc2cccc(-c3nnc4n3CCC4)n2)cc1-n1cnc(C2CC2)c1 [Example 1, 5-(4-cyclopropyl-1H-imidazol-1-yl)-N-(6-(6,7-dihydro-5H-pyrrolo[2,1-c][1,2,4]triazol-3-yl)pyridin-2-yl)-2-fluoro-4-methylbenzamide]
9.3	–	–	–	–	–	–	Cc1cc(F)c(C(=O)Nc2cccc(-c3nnc4n3CCCCC4)n2)cc1-n1cnc(C2CC2)c1 [Example 2, 5-(4-Cyclopropyl-1H-imidazol-1-yl)-2-fluoro-4-methy 1-N-(6-(6,7,8,9-tetrahydro-5H-[1,2,4]triazolo[4,3-a]azepin-3-yl)pyridin-2-yl)benzamide]
13.4	–	–	–	–	–	–	Cc1cc(F)c(C(=O)Nc2cccc(-c3nnc4n3CCCC4)n2)cc1-n1cnc(C2CC2)c1 [Example 3, 5-(4-Cyclopropyl-1H-imidazol-1-yl)-2-fluoro-4-methyl-N-(6-(5,6,7,8-tetrahydro-[1,2,4]triazolo[4,3-a]pyridin-3-yl)pyridin-2-yl)benzamide]
47.8	–	–	–	–	–	–	Cc1cc(F)c(C(=O)Nc2cccc(-c3nnc4n3CCOC4)n2)cc1-n1cnc(C2CC2)c1 [Example 4, 5-(4-Cyclopropyl-1H-imidazol-1-yl)-N-(6-(5,6-dihydro-8H-[1,2,4]triazolo[3,4-c][1,4]oxazin-3-yl)pyridin-2-yl)-2-fluoro-4-methylbenzamide]
19.6	–	–	–	–	–	–	O=C(Nc1cccc(-c2nnc3n2CCC3)c1)c1cc(-n2cnc(C3CC3)c2)ccn1 [Example 7, 4-(4-Cyclopropyl-1H-imidazol-1-yl)-N-(3-(6,7-dihydro-5H-pyrrolo[2,1-c][1,2,4]triazol-3-yl)phenyl)picolinamide]
1.8	1	29700	29800	2.7	4.6	4810	Cc1cc(F)c(C(=O)Nc2cccc(-c3nnc4n3[C@H](C)CC4)n2)cc1-n1cnc(C2CC2)c1 [Example 8, (R)-5-(4-Cyclopropyl-1H-imidazol-1-yl)-2-fluoro-4-methyl-N-(6-(5-methyl-6,7-dihydro-5H-pyrrolo[2,1-c][1,2,4]triazol-3-yl)pyridin-2-yl)benzamide]
5	0.5	38100	38400	4.4	5.5	4370	Cc1cc(F)c(C(=O)Nc2cccc(-c3nnc4n3[C@@H](C)CC4)n2)cc1-n1cnc(C2CC2)c1 [Example 9, (S)-5-(4-Cyclopropyl-1H-imidazol-1-yl)-2-fluoro-4-methyl-N-(6-(5-methyl-6,7-dihydro-5H-pyrrolo[2,1-c][1,2,4]triazol-3-yl)pyridin-2-yl)benzamide]
11.4	–	–	–	–	–	–	Cc1cc(F)c(C(=O)Nc2cccc(-c3nnc4n3CC(C3CC3)C4)n2)cc1-n1cnc(C2CC2)c1 (stereo not shown) [Example 30, 5-(4-Cyclopropyl-1H-imidazol-1-yl)-N-(6-(6-cyclopropyl-6,7-dihydro-5H-pyrrolo[2,1-c][1,2,4]triazol-3-yl)pyridin-2-yl)-2-fluoro-4-methylbenzamide]
10.9	–	–	–	–	–	–	Cc1cc(F)c(C(=O)Nc2cccc(-c3nnc4n3CC3(CC3)C4)n2)cc1-n1cnc(C2CC2)c1 [Example 31, N-(6-(5′H,7′H-Spiro[cyclopropane-1,6′-pyrrolo[2,1-c][1,2,4]triazol]-3′-yl)pyridin-2-yl)-5-(4-cyclopropyl-1H-imidazol-1-yl)-2-fluoro-4-methylbenzamide]
–	1	107000	108000	3.7	5	13500	Cc1cc(F)c(C(=O)Nc2cccc(-c3nnc4n3C[C@@H](C)C4)n2)cc1-n1cnc(C2CC2)c1 [Example 35, (S)-5-(4-Cyclopropyl-1H-imidazol-1-yl)-2-fluoro-4-methyl-N-(6-(6-methyl-6,7-di hydro-5H-pyrrolo[2,1-c][1,2,4]triazol-3-yl)pyridin-2-yl)benzamide]
9.1	–	–	–	–	–	–	CO[C@H](C)[C@H]1CCc2nnc(-c3cccc(NC(=O)c4cc(-n5cnc(C6CC6)c5)c(C)cc4F)n3)n21 [Example 36, 5-(4-Cyclopropyl-1H-imidazol-1-yl)-2-fluoro-N-(6-((R)-5-((R)-1-methoxyethyl)-6,7-di hydro-5H-pyrrolo[2,1-c][1,2,4]triazol-3-yl)pyridin-2-yl)-4-methylbenzamide]
3.6	–	–	–	–	–	–	C#CC1CCc2nnc(-c3cccc(NC(=O)c4cc(-n5cnc(C6CC6)c5)c(C)cc4F)n3)n21 (stereo not shown) [Example 44, 5-(4-Cyclopropyl-1H-imidazol-1-yl)-N-(6-(5-ethynyl-6,7-dihydro-5H-pyrrolo[2,1-c][1,2,4]triazol-3-yl)pyridin-2-yl)-2-fluoro-4-methylbenzamide]
6.1	–	–	–	–	–	–	Cc1cc(F)c(C(=O)Nc2cccc(-c3nnc4n3[C@H](CC#N)CC4)n2)cc1-n1cnc(C2CC2)c1 [Example 48, (S)—N-(6-(5-(Cyanomethyl)-6,7-dihydro-5H-pyrrolo[2,1-c][1,2,4]triazol-3-yl)pyridin-2-yl)-5-(4-cyclopropyl-1H-imidazol-1-yl)-2-fluoro-4-methylbenzamide]
9.6	–	–	–	–	–	–	Cc1cc(F)c(C(=O)Nc2cccc(-c3nnc4n3[C@H](CO)CC4)n2)cc1-n1cnc(C2CC2)c1 [Example 50, (S)-5-(4-Cyclopropyl-1H-imidazol-1-yl)-2-fluoro-N-(6-(5-(hydroxymethyl)-6,7-dihydro-5H-pyrrolo[2,1-c][1,2,4]triazol-3-yl)pyridin-2-yl)-4-methylbenzamide]
–	0.5	70500	70600	3	4.7	9970	Cc1cc(F)c(C(=O)Nc2cccc(-c3nnc4n3[C@@H](CF)CC4)n2)cc1-n1cnc(C2CC2)c1 [Example 52, (R)-5-(4-Cyclopropyl-1H-imidazol-1-yl)-2-fluoro-N-(6-(5-(fluoromethyl)-6,7-dihydro-5H-pyrrolo[2,1-c][1,2,4]triazol-3-yl)pyridin-2-yl)-4-methylbenzamide]
8.2	–	–	–	–	–	–	Cc1cc(Cl)c(C(=O)Nc2cccc(-c3nnc4n3[C@H](C)CC4)n2)cc1-n1cnc(C2CC2)c1 [Example 53, (R)-2-Chloro-5-(4-cyclopropyl-1H-imidazol-1-yl)-4-methyl-N-(6-(5-methyl-6,7-dihydro-5H-pyrrolo[2,1-c][1,2,4]triazol-3-yl)pyridin-2-yl)benzamide]
3	–	–	–	–	–	–	Cc1cc(F)c(C(=O)Nc2cccc(-c3nnc4n3C3(CC4)CC3)n2)cc1-n1cnc(C(C)C)c1 [Example 62, N-(6-(6′,7′-Dihydrospiro[cyclopropane-1,5′-pyrrolo[2,1-c][1,2,4]triazol]-3′-yl)pyridin-2-yl)-2-fluoro-5-(4-isopropyl-1H-imidazol-1-yl)-4-methylbenzamide]
8.4	–	–	–	–	–	–	Cc1cc2c(cc1-n1cnc(C3CC3)c1)C(=O)N(c1cccc(-c3nnc4n3CCC4)n1)C2 [Example 63, 6-(4-Cyclopropyl-1H-imidazol-1-yl)-2-(6-(6,7-dihydro-5H-pyrrolo[2,1-c][1,2,4]triazol-3-yl)pyridin-2-yl)-5-methylisoindolin-1-one]
